IC50 and Kd data for five compounds are collected here from ChEMBL document CHEMBL5120797, “Principles of Kinase Allosteric Inhibition and Pocket Validation” (J Med Chem, 2022).

Molecules are shown by their SMILES.

The term IC50 denotes the concentration that gives 50% inhibition. Broadly, the Kd is a measure of binding affinity in units of concentration.

Experiment [1] addresses Serine/threonine-protein kinase WNK1 (Homo sapiens, UniProt Q9H4A3). As to the kind of experiment: Inhibition of human WNK1 (198 to 401 residues) using biotinylated STK3 as substrate incubated for 2 hrs by HTRF assay.
Experiment [2] addresses T1, Tyrosine-protein kinase ITK/TSK (Homo sapiens, UniProt Q08881).
T1 sequence (Q08881 whole entry): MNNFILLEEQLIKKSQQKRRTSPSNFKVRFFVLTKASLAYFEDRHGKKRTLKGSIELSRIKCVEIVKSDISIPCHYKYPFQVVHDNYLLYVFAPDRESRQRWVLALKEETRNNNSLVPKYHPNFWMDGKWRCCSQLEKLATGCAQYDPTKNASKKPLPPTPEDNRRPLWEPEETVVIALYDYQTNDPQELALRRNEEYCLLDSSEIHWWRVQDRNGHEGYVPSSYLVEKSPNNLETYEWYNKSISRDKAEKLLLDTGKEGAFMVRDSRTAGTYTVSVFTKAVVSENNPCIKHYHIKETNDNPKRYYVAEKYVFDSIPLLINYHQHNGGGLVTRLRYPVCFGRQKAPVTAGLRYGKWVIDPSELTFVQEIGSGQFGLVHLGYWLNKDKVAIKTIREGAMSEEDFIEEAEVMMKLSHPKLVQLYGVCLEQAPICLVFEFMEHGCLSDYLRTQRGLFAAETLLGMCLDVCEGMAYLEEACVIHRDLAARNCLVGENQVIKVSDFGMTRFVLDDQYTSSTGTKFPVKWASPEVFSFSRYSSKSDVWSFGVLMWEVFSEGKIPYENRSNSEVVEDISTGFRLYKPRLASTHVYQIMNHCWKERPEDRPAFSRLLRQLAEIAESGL
In words: Inhibition of human N-terminal His6 tagged ITK (354 to 620 residues) expressed in Sf9 insect cells incubated for 30 mins by time-resolved fluorescence assay.

Experiment [3] is described as follows: Binding affinity to MEK1/2 (unknown origin) assessed as dissociation constant. Also noted: species or system Homo sapiens.
Experiment [4] concerns the target Hepatocyte growth factor receptor (Homo sapiens, UniProt P08581). In words: Inhibition of c-Met (unknown origin).
Experiment [5] can be described thus: Inhibition of MEK1/2 (unknown origin). Also on record: species or system Homo sapiens.

Sequence of Serine/threonine-protein kinase WNK1 (Q9H4A3 whole entry, the tested form may be a part): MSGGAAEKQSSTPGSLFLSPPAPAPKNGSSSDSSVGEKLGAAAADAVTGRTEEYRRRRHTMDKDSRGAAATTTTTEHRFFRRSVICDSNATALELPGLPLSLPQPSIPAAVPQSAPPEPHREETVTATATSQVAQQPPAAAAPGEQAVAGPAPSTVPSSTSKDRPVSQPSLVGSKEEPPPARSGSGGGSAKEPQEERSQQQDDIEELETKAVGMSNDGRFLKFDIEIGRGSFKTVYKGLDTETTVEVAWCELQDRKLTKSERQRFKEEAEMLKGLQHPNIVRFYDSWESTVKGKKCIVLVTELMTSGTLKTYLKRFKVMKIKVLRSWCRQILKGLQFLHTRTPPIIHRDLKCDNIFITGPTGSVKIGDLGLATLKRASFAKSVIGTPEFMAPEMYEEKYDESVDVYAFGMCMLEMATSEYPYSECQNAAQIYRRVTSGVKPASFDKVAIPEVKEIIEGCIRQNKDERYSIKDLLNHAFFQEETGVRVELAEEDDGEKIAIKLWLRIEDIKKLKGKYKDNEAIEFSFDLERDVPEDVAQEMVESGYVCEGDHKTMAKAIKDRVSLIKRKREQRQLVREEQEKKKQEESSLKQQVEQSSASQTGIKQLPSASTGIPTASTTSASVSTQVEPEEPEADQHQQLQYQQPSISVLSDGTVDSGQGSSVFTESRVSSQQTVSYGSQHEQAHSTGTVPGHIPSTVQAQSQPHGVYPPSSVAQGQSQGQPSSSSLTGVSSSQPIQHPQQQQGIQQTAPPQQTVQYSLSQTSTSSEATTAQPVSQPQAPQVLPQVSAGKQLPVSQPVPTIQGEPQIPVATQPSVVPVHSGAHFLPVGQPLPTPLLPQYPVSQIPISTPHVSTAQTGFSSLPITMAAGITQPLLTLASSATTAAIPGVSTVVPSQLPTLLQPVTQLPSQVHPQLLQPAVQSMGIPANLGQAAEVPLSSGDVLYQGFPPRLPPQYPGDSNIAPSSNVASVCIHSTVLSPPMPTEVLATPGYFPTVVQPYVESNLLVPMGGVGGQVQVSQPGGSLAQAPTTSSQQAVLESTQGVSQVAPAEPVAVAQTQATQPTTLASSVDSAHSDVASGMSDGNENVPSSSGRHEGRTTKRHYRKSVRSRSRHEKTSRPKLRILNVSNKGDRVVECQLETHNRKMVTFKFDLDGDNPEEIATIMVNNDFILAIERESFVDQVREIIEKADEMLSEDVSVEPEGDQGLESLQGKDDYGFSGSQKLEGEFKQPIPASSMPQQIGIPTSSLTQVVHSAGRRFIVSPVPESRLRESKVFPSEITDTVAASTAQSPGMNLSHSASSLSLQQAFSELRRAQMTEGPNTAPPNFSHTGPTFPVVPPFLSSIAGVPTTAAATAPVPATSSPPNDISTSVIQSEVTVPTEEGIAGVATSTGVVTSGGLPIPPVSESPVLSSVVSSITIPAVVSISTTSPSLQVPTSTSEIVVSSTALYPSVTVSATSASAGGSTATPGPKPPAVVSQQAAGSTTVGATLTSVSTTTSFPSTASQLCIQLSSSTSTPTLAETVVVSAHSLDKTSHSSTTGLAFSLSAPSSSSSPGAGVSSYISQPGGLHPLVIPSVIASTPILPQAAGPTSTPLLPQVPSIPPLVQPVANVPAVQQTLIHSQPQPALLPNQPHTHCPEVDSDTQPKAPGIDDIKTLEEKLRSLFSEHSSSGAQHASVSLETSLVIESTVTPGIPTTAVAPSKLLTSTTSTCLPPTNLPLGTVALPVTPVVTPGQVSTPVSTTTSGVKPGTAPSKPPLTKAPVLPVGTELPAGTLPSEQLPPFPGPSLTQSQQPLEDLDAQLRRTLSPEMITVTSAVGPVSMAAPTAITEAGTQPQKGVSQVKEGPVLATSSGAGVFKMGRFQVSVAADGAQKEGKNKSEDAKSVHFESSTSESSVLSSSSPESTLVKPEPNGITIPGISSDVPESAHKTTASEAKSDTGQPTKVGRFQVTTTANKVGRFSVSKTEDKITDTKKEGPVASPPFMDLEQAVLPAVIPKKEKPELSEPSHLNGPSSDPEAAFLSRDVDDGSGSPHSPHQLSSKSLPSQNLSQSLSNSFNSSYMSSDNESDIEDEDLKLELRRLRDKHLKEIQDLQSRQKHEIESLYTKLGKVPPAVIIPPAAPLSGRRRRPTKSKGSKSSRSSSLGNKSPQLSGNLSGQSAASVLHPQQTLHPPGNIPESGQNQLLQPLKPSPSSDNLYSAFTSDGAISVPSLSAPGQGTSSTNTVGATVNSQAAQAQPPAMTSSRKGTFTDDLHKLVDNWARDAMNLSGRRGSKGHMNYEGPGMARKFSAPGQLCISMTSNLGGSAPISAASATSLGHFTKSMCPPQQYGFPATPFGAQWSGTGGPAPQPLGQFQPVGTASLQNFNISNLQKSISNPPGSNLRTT
Sequence of Hepatocyte growth factor receptor (P08581 whole entry): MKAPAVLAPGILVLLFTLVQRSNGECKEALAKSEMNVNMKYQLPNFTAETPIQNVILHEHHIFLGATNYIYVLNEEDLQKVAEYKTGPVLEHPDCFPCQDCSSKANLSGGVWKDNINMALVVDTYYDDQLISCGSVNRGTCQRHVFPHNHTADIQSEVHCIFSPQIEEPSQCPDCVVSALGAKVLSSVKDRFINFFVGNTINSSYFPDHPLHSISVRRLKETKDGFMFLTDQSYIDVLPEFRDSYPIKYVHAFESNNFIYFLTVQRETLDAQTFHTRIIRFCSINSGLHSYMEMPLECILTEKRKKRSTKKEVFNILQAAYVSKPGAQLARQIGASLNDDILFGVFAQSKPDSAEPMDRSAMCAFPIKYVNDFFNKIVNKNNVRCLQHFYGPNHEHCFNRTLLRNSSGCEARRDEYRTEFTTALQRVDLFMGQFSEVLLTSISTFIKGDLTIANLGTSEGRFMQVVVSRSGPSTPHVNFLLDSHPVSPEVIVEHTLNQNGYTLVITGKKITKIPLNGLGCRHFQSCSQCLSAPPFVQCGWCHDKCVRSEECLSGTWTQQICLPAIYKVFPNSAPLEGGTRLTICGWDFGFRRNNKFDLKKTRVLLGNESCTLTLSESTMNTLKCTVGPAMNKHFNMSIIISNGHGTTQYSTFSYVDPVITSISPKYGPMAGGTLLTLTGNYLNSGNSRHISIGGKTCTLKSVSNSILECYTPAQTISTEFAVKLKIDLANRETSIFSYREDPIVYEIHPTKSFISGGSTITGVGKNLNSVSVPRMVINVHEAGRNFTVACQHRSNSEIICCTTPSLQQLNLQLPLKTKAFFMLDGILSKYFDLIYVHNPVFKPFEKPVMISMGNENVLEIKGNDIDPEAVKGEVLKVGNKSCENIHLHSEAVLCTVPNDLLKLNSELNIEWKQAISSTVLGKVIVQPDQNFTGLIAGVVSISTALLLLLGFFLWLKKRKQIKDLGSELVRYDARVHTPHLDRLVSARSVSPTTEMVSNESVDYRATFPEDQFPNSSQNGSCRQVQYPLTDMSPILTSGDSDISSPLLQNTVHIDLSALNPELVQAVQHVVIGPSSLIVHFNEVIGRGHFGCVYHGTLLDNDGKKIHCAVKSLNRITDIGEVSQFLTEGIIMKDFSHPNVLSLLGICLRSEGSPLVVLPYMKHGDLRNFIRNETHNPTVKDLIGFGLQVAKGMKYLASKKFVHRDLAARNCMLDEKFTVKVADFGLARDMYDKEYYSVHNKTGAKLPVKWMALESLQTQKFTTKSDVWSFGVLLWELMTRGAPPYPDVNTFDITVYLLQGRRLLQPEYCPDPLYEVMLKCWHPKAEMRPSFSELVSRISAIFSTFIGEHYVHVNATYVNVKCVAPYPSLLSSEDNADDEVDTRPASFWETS

In the case of `CNc1nc(-c2ccc3c(c2)CCN3C(=O)c2ccccc2OCc2ccc(Cl)cc2)cs1`, in experiment [1], half-maximal inhibition (IC50) was put at 120 nM.
Compound `CC(C)Oc1ccc2cccc(-n3cc(NC(N)=O)c(C(N)=O)n3)c2c1` had an IC50 in experiment [2] of 30 nM.
On to `Cn1cnc2c(F)c(Nc3ccc(Br)cc3Cl)c(C(=O)NOCCO)cc21` [SELUMETINIB], for which, in experiment [3], the Kd was 14 nM.
Turning to `O=C1NC(=O)[C@@H](c2cn3c4c(cccc24)CCC3)[C@@H]1c1c[nH]c2ccccc12` [TIVANTINIB], in experiment [4], the midpoint of inhibition, the IC50, lay at 360 nM.
In the case of `CC(=O)Nc1cccc(-n2c(=O)n(C3CC3)c(=O)c3c(Nc4ccc(I)cc4F)n(C)c(=O)c(C)c32)c1` [TRAMETINIB], the IC50 in experiment [5] amounted to 2 nM. In experiment [3], the Kd turned out to be 3 nM.
